Residues, ends and D or L forms follow the SMILES beside them.
test system: E. coli O157:H7; format: cell-based, Escherichia coli; settings: screening-stage peptides tested at 1, 6, 12 and 25 μg/mL
Description: In the present invention we used the statistical thermodynamics algorithm TANGO to identify aggregation prone regions (APR) in the proteome of E. coli strain O157:H7. This yielded 3535 sequences of at least 6 amino acids in length and a TANGO score of at least 20%. In order to generate efficient aggregation seeds, we employed a previously devised tandem repeat design ^19, 21, in which the APRs are repeated once and separated by a linker. Given the length limitation on solid phase peptide synthesis with regard to yield and purity, we focused on the 1542 APRs with a length of 7 amino acids. In order to maximize the potential of these peptides to induce aggregation in E. coli, we ranked the APRs by their frequency of occurrence throughout the E. coli proteome, allowing a single amino acid mismatch, and selected the first 75 most frequently occurring sequences from this list (Table 4). In the design pattern, and in order to increase the colloidal stability of these aggregating peptides, the APRs are flanked by aggregation gatekeepers, a class of residues that was previously shown to reduce aggregation kinetics^22-24. […] To generate the tandem we used a single proline residue as a linker between the gatekeeper-flanked APRs. In addition to the 75 peptides generated in this fashion, we added 2 variants of each of the first 25 peptides in the list by randomly mutating one residue in the first APR repeat to arginine to further modulate the aggregation propensity of the peptides (Table 4). All the peptides were generated using solid phase synthesis at 200 nmole scale and dissolved in DMSO to a theoretical stock concentration of 2 mM (assuming 100% synthesis efficiency). Peptide activity on the growth of E. coli O157:H7 was measured at dilutions of the peptide corresponding to concentrations of 1, 6, 12 and 25 μg/mL. […] The Matthews Correlations Coefficient (MCC) with the measured activity was 0.1 at 12 μg/mL and 0.24 at 25 μg/mL.

Going from CC(C)C[C@H](NC(=O)[C@H](C)NC(=O)[C@H](CCCNC(=N)N)NC(=O)[C@@H]1CCCN1C(=O)[C@H](CCCNC(=N)N)NC(=O)[C@H](CCCNC(=N)N)NC(=O)[C@H](CC(C)C)NC(=O)[C@H](CC(C)C)NC(=O)[C@@H](NC(=O)[C@@H](NC(=O)[C@H](CCCNC(=N)N)NC(=O)[C@H](CC(C)C)NC(=O)[C@H](C)NC(=O)[C@@H](N)CCCNC(=N)N)[C@@H](C)O)[C@@H](C)O)C(=O)N[C@@H](CC(C)C)C(=O)N[C@H](C(=O)N[C@H](C(=O)N[C@@H](CC(C)C)C(=O)N[C@@H](CC(C)C)C(=O)N[C@@H](CCCNC(=N)N)C(=O)N[C@@H](CCCNC(=N)N)C(=O)O)[C@@H](C)O)[C@@H](C)O [Peptide P80] (H-RALRTTLLRRPRALLTTLLRR-OH; N-terminus and C-terminus assumed) to CC(C)C[C@H](NC(=O)[C@H](C)NC(=O)[C@@H](N)CCCNC(=N)N)C(=O)N[C@@H](CC(C)C)C(=O)N[C@@H](CCCNC(=N)N)C(=O)N[C@H](C(=O)N[C@@H](CC(C)C)C(=O)N[C@@H](CC(C)C)C(=O)N[C@@H](CCCNC(=N)N)C(=O)N[C@@H](CCCNC(=N)N)C(=O)N1CCC[C@H]1C(=O)N[C@@H](CCCNC(=N)N)C(=O)N[C@@H](C)C(=O)N[C@@H](CC(C)C)C(=O)N[C@@H](CC(C)C)C(=O)N[C@H](C(=O)N[C@H](C(=O)N[C@@H](CC(C)C)C(=O)N[C@@H](CC(C)C)C(=O)N[C@@H](CCCNC(=N)N)C(=O)N[C@@H](CCCNC(=N)N)C(=O)O)[C@@H](C)O)[C@@H](C)O)[C@@H](C)O [Peptide P105] (H-RALLRTLLRRPRALLTTLLRR-OH; N-terminus and C-terminus assumed), the “E. coli O157 (apparent MIC in screen)” value falls from 25 µg/mL to 6 µg/mL (4.2-fold).

CC(C)C[C@H](NC(=O)[C@H](C)NC(=O)[C@H](CC(C)C)NC(=O)[C@@H](NC(=O)[C@H](C)NC(=O)[C@H](CO)NC(=O)[C@H](CCCNC(=N)N)NC(=O)[C@@H]1CCCN1C(=O)[C@H](CCCNC(=N)N)NC(=O)[C@H](CCCNC(=N)N)NC(=O)[C@H](CC(C)C)NC(=O)[C@H](CC(C)C)NC(=O)[C@H](C)NC(=O)[C@H](CCCNC(=N)N)NC(=O)[C@@H](NC(=O)[C@H](C)NC(=O)[C@H](CO)NC(=O)[C@@H](N)CCCNC(=N)N)C(C)C)C(C)C)C(=O)N[C@@H](CC(C)C)C(=O)N[C@@H](CCCNC(=N)N)C(=O)N[C@@H](CCCNC(=N)N)C(=O)O [Peptide P118] (H-RSAVRALLRRPRSAVLALLRR-OH; N-terminus and C-terminus assumed) and CC(C)C[C@H](NC(=O)[C@H](C)NC(=O)[C@H](CC(C)C)NC(=O)[C@@H](NC(=O)[C@H](CCCNC(=N)N)NC(=O)[C@@H]1CCCN1C(=O)[C@H](CCCNC(=N)N)NC(=O)[C@H](CCCNC(=N)N)NC(=O)[C@H](CC(C)C)NC(=O)[C@H](C)NC(=O)[C@H](CCCNC(=N)N)NC(=O)[C@H](CC(C)C)NC(=O)[C@H](C)NC(=O)[C@H](CC(C)C)NC(=O)[C@@H](NC(=O)[C@@H](N)CCCNC(=N)N)C(C)C)C(C)C)C(=O)N[C@@H](C)C(=O)N[C@@H](C)C(=O)N[C@@H](CC(C)C)C(=O)N[C@@H](CCCNC(=N)N)C(=O)N[C@@H](CCCNC(=N)N)C(=O)O [Peptide P111] (H-RVLALRALRRPRVLALAALRR-OH; N-terminus and C-terminus assumed) are the same in “E. coli O157 (apparent MIC in screen)” value: 25 µg/mL for the first, 25 µg/mL for the second.

CC[C@H](C)[C@H](NC(=O)CNC(=O)[C@H](CCCNC(=N)N)NC(=O)[C@H](CC(C)C)NC(=O)[C@@H](N)CCCNC(=N)N)C(=O)N[C@@H](C)C(=O)N[C@@H](CC(C)C)C(=O)NCC(=O)N[C@@H](CCCNC(=N)N)C(=O)N[C@@H](CCCNC(=N)N)C(=O)N1CCC[C@H]1C(=O)N[C@@H](CCCNC(=N)N)C(=O)N[C@@H](CC(C)C)C(=O)N[C@H](C(=O)NCC(=O)N[C@H](C(=O)N[C@@H](C)C(=O)N[C@@H](CC(C)C)C(=O)NCC(=O)N[C@@H](CCCNC(=N)N)C(=O)N[C@@H](CCCNC(=N)N)C(=O)O)[C@@H](C)CC)[C@@H](C)CC [Peptide P90] (H-RLRGIALGRRPRLIGIALGRR-OH; N-terminus and C-terminus assumed) and CC[C@H](C)[C@H](NC(=O)[C@H](CC(C)C)NC(=O)[C@H](CC(C)C)NC(=O)[C@H](C)NC(=O)[C@H](CCCNC(=N)N)NC(=O)[C@@H]1CCCN1C(=O)[C@H](CCCNC(=N)N)NC(=O)[C@H](CCCNC(=N)N)NC(=O)[C@H](CC(C)C)NC(=O)[C@H](CC(C)C)NC(=O)[C@@H](NC(=O)[C@@H](NC(=O)[C@H](CCCNC(=N)N)NC(=O)[C@H](CC(C)C)NC(=O)[C@H](C)NC(=O)[C@@H](N)CCCNC(=N)N)[C@@H](C)CC)[C@@H](C)O)C(=O)N[C@H](C(=O)N[C@@H](CC(C)C)C(=O)N[C@@H](CC(C)C)C(=O)N[C@@H](CCCNC(=N)N)C(=O)N[C@@H](CCCNC(=N)N)C(=O)O)[C@@H](C)O [Peptide P123] (H-RALRITLLRRPRALLITLLRR-OH; N-terminus and C-terminus assumed) are the same in “E. coli O157 (apparent MIC in screen)” value: 25 µg/mL for the first, 25 µg/mL for the second.

First: CC(C)C[C@H](NC(=O)[C@H](CC(C)C)NC(=O)[C@H](CC(C)C)NC(=O)[C@H](CCCNC(=N)N)NC(=O)[C@@H]1CCCN1C(=O)[C@H](CCCNC(=N)N)NC(=O)[C@H](CCCNC(=N)N)NC(=O)[C@@H](NC(=O)[C@H](CC(C)C)NC(=O)[C@H](CC(C)C)NC(=O)[C@H](CO)NC(=O)[C@H](CC(C)C)NC(=O)[C@H](CCCNC(=N)N)NC(=O)[C@H](CC(C)C)NC(=O)[C@@H](N)CCCNC(=N)N)C(C)C)C(=O)N[C@@H](CO)C(=O)N[C@@H](CC(C)C)C(=O)N[C@@H](CC(C)C)C(=O)N[C@H](C(=O)N[C@@H](CCCNC(=N)N)C(=O)N[C@@H](CCCNC(=N)N)C(=O)O)C(C)C [Peptide P76] (H-RLRLSLLVRRPRLLLSLLVRR-OH; N-terminus and C-terminus assumed)
Second: CC(C)C[C@H](NC(=O)[C@H](C)NC(=O)[C@@H](N)CCCNC(=N)N)C(=O)N[C@@H](CC(C)C)C(=O)N[C@H](C(=O)N[C@@H](C)C(=O)N[C@@H](CCCNC(=N)N)C(=O)N[C@@H](CC(C)C)C(=O)N[C@@H](CCCNC(=N)N)C(=O)N[C@@H](CCCNC(=N)N)C(=O)N1CCC[C@H]1C(=O)N[C@@H](CCCNC(=N)N)C(=O)N[C@@H](C)C(=O)N[C@@H](CC(C)C)C(=O)N[C@@H](CC(C)C)C(=O)N[C@H](C(=O)N[C@@H](C)C(=O)N[C@H](C(=O)N[C@@H](CC(C)C)C(=O)N[C@@H](CCCNC(=N)N)C(=O)N[C@@H](CCCNC(=N)N)C(=O)O)C(C)C)[C@@H](C)O)[C@@H](C)O [Peptide P91] (H-RALLTARLRRPRALLTAVLRR-OH; N-terminus and C-terminus assumed)
The “E. coli O157 (apparent MIC in screen)” value of the first is 2.1-fold lower: 12 µg/mL for the first, 25 µg/mL for the second.

For CC(C)C[C@H](NC(=O)[C@H](C)NC(=O)[C@@H](NC(=O)[C@H](CC(C)C)NC(=O)[C@H](CCC(N)=O)NC(=O)[C@H](CCCNC(=N)N)NC(=O)[C@@H]1CCCN1C(=O)[C@H](CCCNC(=N)N)NC(=O)[C@H](CCCNC(=N)N)NC(=O)[C@@H](NC(=O)[C@H](CC(C)C)NC(=O)[C@H](CCCNC(=N)N)NC(=O)[C@H](C)NC(=O)[C@@H](NC(=O)[C@H](CC(C)C)NC(=O)[C@H](CCC(N)=O)NC(=O)[C@@H](N)CCCNC(=N)N)C(C)C)C(C)C)C(C)C)C(=O)N[C@@H](CC(C)C)C(=O)N[C@H](C(=O)N[C@@H](CCCNC(=N)N)C(=O)N[C@@H](CCCNC(=N)N)C(=O)O)C(C)C [Peptide P92] (H-RQLVARLVRRPRQLVALLVRR-OH; N-terminus and C-terminus assumed), the “E. coli O157 (apparent MIC in screen)” value was 6 µg/mL.
